# Earlier results, collected in US6956029B1, “Solid formulation of glucosamine sulphate” (SCA Lohnherstellungs AG, priority 1999, dated 2005).
# Legend:
# [1] = first acid dissociation constant
# [2] = over 30 days at 75% rH/20° C.
pKa1 [1],SMILES,stability on storage [2]
4.1,O=C1O[C@H]([C@@H](O)CO)C(O)=C1O [ascorbic acid],
3.1,O=C(O)CC(O)(CC(=O)O)C(=O)O [citric acid],
,"N[C@H]1C(O)O[C@H](CO)[C@@H](O)[C@@H]1O.O=S(=O)([O-])O.[Cl-].[K+].[K+] (stereo partly drawn) [mixed salt with potassium chloride, D-glucosamine sulphate di-potassium chloride]",essentially stable
